Test results as given in the supplement of paper PMC11919725.

Columns and labels:
[1] = system: Jurkat; assay: confluency relative to DMSO, 18 h (ratio); higher = more viable
Outline: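 Cells (Jurkat, or primary CD4+/CD8+ T cells either naive or stimulated 48 h with CD3/CD28 Dynabeads) were incubated with compound for 18 h at 37 °C, 5% CO2, across 1 nM–10 µM in log10 steps. Each 100 µl suspension was then placed in a 96-well plate with IncuCyte Cytotox Dye and alamarBlue and imaged by phase contrast at ×10, five images per well, hourly over 3 h. Confluency values come from the Basic Analyzer and are relative to the mean of the control wells.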

[2] = system: Jurkat; assay: cytotoxicity relative to DMSO, 18 h (ratio); higher = less cell death (drugs called cytotoxic fall below 1)
Outline: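 The assay used Jurkat cells or naive or CD3/CD28 Dynabead-activated (48 h) primary CD4+/CD8+ T cells, incubated with compound at 1 nM–10 µM in log10 steps for 18 h at 37 °C, 5% CO2. Cytotoxicity was assessed with IncuCyte Cytotox Dye and IncuCyte fluorescence imaging, corrected for confluency and scaled to mean control signals.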

[3] = system: Jurkat; assay: metabolic activity relative to DMSO, 18 h (ratio); higher = more viable
Outline: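 Compound was added at 1 nM–10 µM (log10 steps) for 18 h at 37 °C, 5% CO2 to Jurkat cells or to primary CD4+/CD8+ T cells that were naive or had been activated 48 h with CD3/CD28 Dynabeads. After alamarBlue was added to 10% v/v final, fluorescence (excitation 544 nm, emission 584 nm) was measured 3.5 h later. Values for metabolic activity are normalised to the mean of vehicle controls.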

Compound	confluency ([1]; 1 nM)	confluency ([1]; 10 nM)	confluency ([1]; 100 nM)	confluency ([1]; 1000 nM)	confluency ([1]; 10000 nM)	cytotoxicity ([2]; 1 nM)	cytotoxicity ([2]; 10 nM)	cytotoxicity ([2]; 100 nM)	cytotoxicity ([2]; 1000 nM)	cytotoxicity ([2]; 10000 nM)	metabolic activity ([3]; 1 nM)	metabolic activity ([3]; 10 nM)	metabolic activity ([3]; 100 nM)	metabolic activity ([3]; 1000 nM)	metabolic activity ([3]; 10000 nM)
CCS(=O)(=O)N1CC(CC#N)(n2cc(-c3ncnc4[nH]ccc34)cn2)C1 [Baricitinib]	0.989	0.95	0.965	0.879	0.812	0.929	0.913	1.02	0.869	0.802	0.956	1.04	1.22	1.11	0.878
O=C(C=Cc1cccc(S(=O)(=O)Nc2ccccc2)c1)NO [Belinostat]	1.04	1.07	0.966	1.02	0.87	1.08	1.14	1.07	1.18	0.932	0.982	1.06	1.09	0.811	0.635
Cn1cnc2c(F)c(Nc3ccc(Br)cc3F)c(C(=O)NOCCO)cc21 [Binimetinib]	1	1.01	0.975	0.959	0.989	1.13	1.22	1	0.926	0.948	1.13	1.12	0.989	0.909	0.933
CC(C)CC(NC(=O)C(Cc1ccccc1)NC(=O)c1cnccn1)B(O)O (stereo not given) [Bortezomib]	0.99	0.969	0.721	0.934	0.951	1.02	0.944	0.569	0.531	0.539	1.2	1.13	0.556	0.181	0.149
COc1cc(N2CCC(N3CCN(C)CC3)CC2)ccc1Nc1ncc(Cl)c(Nc2ccccc2P(C)(C)=O)n1 [Brigatinib]	0.851	1.08	1.14	1.13	1.07	0.701	0.654	0.641	0.614	0.565	0.883	0.946	0.911	0.83	0.766
CCOC(=O)Nc1cc(-c2ccc(C)c(NS(C)(=O)=O)c2)nn2c(C)nnc12 [Bromosporine]	0.963	1	1.02	1.2	1.18	0.92	0.952	0.977	1.19	1.11	0.994	0.938	0.79	0.846	0.811
Nc1cc(C(F)(F)F)c(-c2cc(N3CCOCC3)nc(N3CCOCC3)n2)cn1 [Buparlisib]	1.04	1.05	0.999	1.02	0.756	1.03	1.06	0.975	0.987	0.6	0.939	0.925	0.834	0.742	0.377
O=c1cc(-c2ccccc2F)[nH]c2cc3c(cc12)OCO3 [CHM-1]	0.973	0.963	0.976	0.71	0.588	0.961	0.929	0.919	0.618	0.461	1.02	1.07	0.992	0.688	0.704
O=C(O)C1(C(=O)O)CCC1.[NH2-].[NH2-].[Pt+2] [Carboplatin]	0.969	0.997	0.974	0.995	0.951	0.95	1.07	0.984	0.993	0.905	0.863	0.781	0.818	0.83	0.819
CC(C)CC(NC(=O)C(CCc1ccccc1)NC(=O)CN1CCOCC1)C(=O)NC(Cc1ccccc1)C(=O)NC(CC(C)C)C(=O)C1(C)CO1 (stereo not given) [Carfilzomib]	1	0.909	0.803	0.867	0.818	1.02	0.883	0.531	0.572	0.543	1.02	0.882	0.128	0.113	0.13
CCS(=O)(=O)N1CCN(c2ccc(Nc3ncc(C(N)=O)c(NC4CC4)n3)cc2)CC1 [Cerdulatinib]	1.04	1.09	0.975	0.903	1.07	1.03	1.02	0.925	0.858	0.921	0.846	0.868	0.898	0.941	0.775
N.N.[Cl][Pt][Cl] [Cisplatin]	0.99	1.09	1.01	0.934	1.03	0.845	0.582	0.996	0.984	1.13	0.96	0.989	0.983	0.939	1.02
O=C(CCCCCCNC(=O)c1cnc(N(c2ccccc2)c2ccccc2Cl)nc1)NO [Citarinostat]	0.975	1	0.987	0.98	0.949	1.03	1.04	0.967	0.941	0.871	0.94	1.02	0.916	0.886	0.632
COc1cc2c(c(OC)c1OC)-c1ccc(OC)c(=O)cc1C(NC(C)=O)CC2 (stereo not given) [Colchicine]	1	1.03	0.72	0.663	0.637	0.985	1.19	0.649	0.552	0.539	0.862	0.83	0.595	0.519	0.476
COc1c(OCCCN2CCOCC2)ccc2c3n(c(=NC(=O)c4cnc(N)nc4)nc12)CCN3 [Copanlisib]	0.918	1.05	0.903	0.789	0.932	0.843	1.05	0.885	0.619	0.712	1.04	1.06	0.753	0.523	0.435
CC(Oc1cc(-c2cnn(C3CCNCC3)c2)cnc1N)c1c(Cl)ccc(F)c1Cl (stereo not given) [Crizotinib]	1.1	0.657	1	0.919	0.771	0.908	0.369	1.08	0.848	0.768	0.831	0.944	0.836	0.975	0.882
O=P1(N(CCCl)CCCl)NCCCO1 (stereo not given) [Cyclophosphamide]	1.01	0.94	0.948	0.977	0.951	1.16	0.989	0.959	0.983	0.977	1.14	1.07	1.04	1.02	1.03
CC(C)(C)c1nc(-c2cccc(NS(=O)(=O)c3c(F)cccc3F)c2F)c(-c2ccnc(N)n2)s1 [Dabrafenib]	0.98	1	0.973	0.971	0.965	0.941	0.994	0.966	0.846	0.863	0.973	1.02	0.992	0.91	0.73
Cn1c(=O)n(-c2ccc(C(C)(C)C#N)cc2)c2c3cc(-c4cnc5ccccc5c4)ccc3ncc21 [Dactolisib]	0.986	0.909	0.978	1.05	0.946	0.958	0.809	0.746	0.927	0.822	0.966	0.894	0.652	0.601	0.578
Cc1nc(Nc2ncc(C(=O)Nc3c(C)cccc3Cl)s2)cc(N2CCN(CCO)CC2)n1 [Dasatinib]	0.949	0.946	0.958	0.965	0.91	0.993	0.967	0.979	0.994	0.882	1.07	1.07	1.01	0.989	0.845
CCC(C)(Nc1ccnc(-c2c[nH]c3ncccc23)n1)C(=O)NCC(F)(F)F (stereo not given) [Decernotinib]	1.03	1.03	0.996	0.993	0.96	1.1	1.09	1.01	1.04	1.03	1.08	1.08	1.02	1.05	1.07
Nc1ncn(C2CC(O)C(CO)O2)c(=O)n1 (stereo not given) [Decitabine]	1.02	1.01	0.986	0.972	0.939	0.966	0.964	0.922	0.869	0.862	1.05	1.04	1.02	0.948	0.867
CCc1cnn2c(NCc3ccc[n+]([O-])c3)cc(N3CCCCC3CCO)nc12 (stereo not given) [Dinaciclib]	0.988	1.02	0.864	0.871	1.16	0.926	1.03	0.821	0.989	1.09	0.162	0.147	0.13	0.139	0.128
Cn1cc(-c2ccc(S(=O)(=O)n3ccc(C=CC(=O)Nc4ccccc4N)c3)cc2)cn1 [Domatinostat]	0.879	0.91	0.901	1.03	0.63	0.906	0.925	0.886	1.06	0.636	1.1	1.12	1.03	0.922	0.704
COc1cccc2c1C(=O)c1c(O)c3c(c(O)c1C2=O)CC(O)(C(=O)CO)CC3OC1CC(N)C(O)C(C)O1 (stereo not given) [Doxorubicin]	1.04	0.98	0.995	0.993	1.07	1.05	0.983	0.967	0.871	0.618	1.09	0.901	0.89	0.823	0.342
Nc1ccccc1NC(=O)c1ccc(CNC(=O)OCc2cccnc2)cc1 [Entinostat]	1.04	0.967	0.939	0.906	0.947	1.09	0.937	0.912	0.891	1.01	0.904	0.811	0.957	0.923	0.727
COC1CC2CCC(C)C(O)(O2)C(=O)C(=O)N2CCCCC2C(=O)OC(C(C)CC2CCC(OCCO)C(OC)C2)CC(=O)C(C)C=C(C)C(O)C(OC)C(=O)C(C)CC(C)C=CC=CC=C1C (stereo not given) [Everolimus]	0.88	0.877	0.969	1.06	0.906	0.853	0.843	0.947	0.996	0.893	0.773	0.935	0.975	0.958	0.981
COc1ccc(-c2nc(N3CCOCC3)c3sc(CN(C)c4ncc(C(=O)NO)cn4)cc3n2)cn1 [Fimepinostat]	0.995	1.12	1.2	1.31	1.23	0.792	1.09	1.05	1.12	0.892	0.731	0.914	0.796	0.772	0.42
COc1cc(Nc2ncc(F)c(Nc3ccc4c(n3)N(COP(=O)(O)O)C(=O)C(C)(C)O4)n2)cc(OC)c1OC [Fostamatinib]	1	0.995	0.961	0.911	0.821	1.06	1.05	0.951	0.893	0.783	1.21	1.23	1.1	1.01	0.925
